This is an account of results in patent US11702404B2, “GLP-1R modulating compounds” (priority 2019, dated 2023).

What is called pEC50 is the EC50 on a negative log10 scale, so that one unit is a factor of ten. For orientation: EC50 means the concentration that produces a half-maximal response. Low readings indicate higher potency in that assay, high ones lower potency in that assay.

pEC50: −log10 of the molar value. Like-named read-outs stand apart in the source and are kept apart here.

Data set [1] deals with GLP-1R (Homo sapiens, UniProt P43220). As to the kind of experiment: GLP-1R activation: cAMP increase in CHO cells stably expressing GLP-1R. The class given is cell-based. Conditions: for pEC50: read-out: EC50; for EC50: EC50 (nM).
Data set [2] in a line: Microsomal stability, human liver microsomes (predicted hepatic clearance). The settings on record: predicted from in vitro microsomal stability data.
[3] abbreviates: cAMP increase, CHO cells stably expressing GLP-1R, 10 point dose response, 30 minutes incubation.

Sequence of GLP-1R (P43220 24-463): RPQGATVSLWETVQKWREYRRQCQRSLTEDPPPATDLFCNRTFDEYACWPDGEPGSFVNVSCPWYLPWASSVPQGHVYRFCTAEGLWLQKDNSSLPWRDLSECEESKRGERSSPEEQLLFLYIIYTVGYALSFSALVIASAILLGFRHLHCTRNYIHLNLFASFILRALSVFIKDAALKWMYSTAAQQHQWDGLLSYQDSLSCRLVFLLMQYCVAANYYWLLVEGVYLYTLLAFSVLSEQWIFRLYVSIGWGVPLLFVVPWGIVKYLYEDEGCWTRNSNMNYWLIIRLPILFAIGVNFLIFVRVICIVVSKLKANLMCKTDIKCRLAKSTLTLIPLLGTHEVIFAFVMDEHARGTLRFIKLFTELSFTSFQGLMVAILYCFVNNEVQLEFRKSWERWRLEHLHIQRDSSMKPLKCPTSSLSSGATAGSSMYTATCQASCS

As for `N#Cc1ccc(COc2ccc(F)c(-c3cc(F)c(Cc4nc5c(F)cc(C(=O)O)cc5n4C[C@@H]4CCO4)cc3F)n2)cn1` [Example 852, (S)-2-(4-(6-((6-cyanopyridin-3-yl)methoxy)-3-fluoropyridin-2-yl)-2,5-difluorobenzyl)-4-fluoro-1-(oxetan-2-ylmethyl)-1H-benzo[d]imidazole-6-carboxylic acid], the pEC50 in data set [1] (setting [3]) was 9.62. Besides, the “Predicted Hepatic Clearance (Pred. Cl.)” value in data set [2] is recorded as 0.27 L/h/kg.

`CC1(C)CC[C@@H](Cn2c(Cc3cc(F)c(-c4cccc(OCc5ccc(C#N)cc5F)n4)cc3F)nc3ccc(C(=O)O)cc32)O1` (racemic) [Example 549, 2-(4-(6-((4-cyano-2-fluorobenzyl)oxy)pyridin-2-yl)-2,5-difluorobenzyl)-1-((5,5-dimethyltetrahydrofuran-2-yl)methyl)-1H-benzo[d]imidazole-6-carboxylic acid]: in data set [1] (setting [3]), the pEC50 is 7.34. Also, the “Predicted Hepatic Clearance (Pred. Cl.)” value in data set [2] is 0.72 L/h/kg.

In the case of `COCCn1c(C2CCc3cc(-c4cccc(OCc5ccc(C#N)cc5F)n4)ccc32)nc2ccc(C(=O)O)cc21` (single isomer, unassigned) [Example 46, 2-(5-(6-((4-cyano-2-fluorobenzyl)oxy)pyridin-2-yl)-2,3-dihydro-1H-inden-1-yl)-1-(2-methoxyethyl)-1H-benzo[d]imidazole-6-carboxylic acid], in data set [1] (setting [3]), the negative logarithm of the EC50 (pEC50) is 7.20. Moreover, in data set [2], the “Predicted Hepatic Clearance (Pred. Cl.)” value is listed as 0.3 L/h/kg.

Turning to `COCCn1c(Cc2ccc(-c3ccc(N)c(OCc4ccc(C#N)cc4F)c3)cc2F)nc2ccc(C(=O)O)cc21` [Example 82, 2-((4′-amino-3′-((4-cyano-2-fluorobenzyl)oxy)-3-fluoro-[1,1′-biphenyl]-4-yl)methyl)-1-(2-methoxyethyl)-1H-benzo[d]imidazole-6-carboxylic acid], in data set [1] (setting [3]), the pEC50 was 6.58. In data set [2], the “Predicted Hepatic Clearance (Pred. Cl.)” value was 0.22 L/h/kg.

Take `N#Cc1cc(F)c(COc2ncc(F)c(-c3cc(F)c(Cc4nc5c(F)cc(C(=O)O)cc5n4C[C@@H]4CCO4)cc3F)n2)cc1F` [Example 885]: the pEC50 in data set [1] (setting [3]) is 9.66. In addition, the “Predicted Hepatic Clearance (Pred. Cl.)” value in data set [2] is reported as 0.55 L/h/kg.

In the case of `COC[C@@H](C)n1c(Cc2cc(F)c(-c3cccc(OCc4ccc(C#N)cc4F)n3)cc2F)nc2ccc(C(=O)O)cc21` [Example 560, (R)-2-(4-(6-((4-cyano-2-fluorobenzyl)oxy)pyridin-2-yl)-2,5-difluorobenzyl)-1-(1-methoxypropan-2-yl)-1H-benzo[d]imidazole-6-carboxylic acid], the pEC50 in data set [1] (setting [3]) is 8.72. Besides, the “Predicted Hepatic Clearance (Pred. Cl.)” value in data set [2] was 0.35 L/h/kg.

Turning to `COCCn1c(Cc2cc(F)c(-c3cccc(OCc4ccc(C#N)cc4F)n3)c(F)c2)nc2ccc(C(=O)O)cc21` [Example 110, 2-(4-(6-((4-cyano-2-fluorobenzyl)oxy)pyridin-2-yl)-3,5-difluorobenzyl)-1-(2-methoxyethyl)-1H-benzo[d]imidazole-6-carboxylic acid], the EC50 in data set [1] is 21.8 nM. Moreover, the “Predicted Hepatic Clearance (Pred. Cl.)” value in data set [2] is 0.42 L/h/kg.

For `N#Cc1ccc(COc2cccc(-c3cc(F)c(Cc4nc5ccc(C(=O)O)cc5n4CC45CCN(CC4)C5)cc3F)n2)c(F)c1` [Example 742], the negative logarithm of the EC50 (pEC50) in data set [1] (setting [3]) is 7.26. For the same molecule, the “Predicted Hepatic Clearance (Pred. Cl.)” value in data set [2] is on record as 0.11 L/h/kg.

For the molecule `O=C(O)c1ccc2nc(Cc3cc(F)c(-c4ccc(F)c(OCc5ccc(C(F)F)cc5F)n4)cc3F)n(CC34CC(CO3)C4)c2c1` [Example 772], the negative logarithm of the EC50 (pEC50) in data set [1] (setting [3]) is 9.21. In data set [2], the “Predicted Hepatic Clearance (Pred. Cl.)” value is recorded as 0.11 L/h/kg.

In turn, `COCCn1c(Cc2ccc(-c3cccc(OCc4ccc(COC)cc4F)n3)cc2F)nc2ccc(C(=O)O)cc21` [Example 845, 2-(2-fluoro-4-(6-((2-fluoro-4-(methoxymethyl)benzyl)oxy)pyridin-2-yl)benzyl)-1-(2-methoxyethyl)-1H-benzo[d]imidazole-6-carboxylic acid] registered an EC50 in data set [1] of 18 nM. For the same molecule, in data set [2], the “Predicted Hepatic Clearance (Pred. Cl.)” value is 0.74 L/h/kg.

Consider `COCCn1c(Cc2ccc(-c3cccc(OCc4ccc(C#N)cc4F)n3)cc2F)nc2ncc(C(=O)O)cc21` [Example 71, 2-(4-(6-((4-cyano-2-fluorobenzyl)oxy)pyridin-2-yl)-2-fluorobenzyl)-1-(2-methoxyethyl)-1H-imidazo[4,5-b]pyridine-6-carboxylic], for which the pEC50 in data set [1] (setting [3]) is 8.87. For the same molecule, the “Predicted Hepatic Clearance (Pred. Cl.)” value in data set [2] was less than 0.11 L/h/kg.

In the case of `COC(Cn1c(Cc2ccc(-c3cccc(OCc4ccc(C#N)cc4F)n3)cc2F)nc2ccc(C(=O)O)cc21)C(=O)Nc1nccs1` (single isomer, unassigned) [Example 338, 2-(4-(6-((4-cyano-2-fluorobenzyl)oxy)pyridin-2-yl)-2-fluorobenzyl)-1-(2-methoxy-3-oxo-3-(thiazol-2-ylamino)propyl)-1H-benzo[d]imidazole-6-carboxylic acid], the pEC50 in data set [1] (setting [3]) is 5.60. In data set [2], the “Predicted Hepatic Clearance (Pred. Cl.)” value is listed as 0.78 L/h/kg.

As for `COCCn1c(Cc2ccc(-c3cccc(OCc4ccc(Cl)cc4OC)n3)cc2F)nc2ccc(C(=O)O)cc21` [Example 247, 2-(4-(6-((4-chloro-2-methoxybenzyl)oxy)pyridin-2-yl)-2-fluorobenzyl)-1-(2-methoxyethyl)-1H-benzo[d]imidazole-6-carboxylic acid], the pEC50 in data set [1] (setting [3]) is 8.66. The “Predicted Hepatic Clearance (Pred. Cl.)” value in data set [2] is given as 0.41 L/h/kg.

For the molecule `N#Cc1ccc(COc2cccc(-c3cc(F)c(Cc4nc5ccc(C(=O)O)cc5n4[C@@H]4CCC(F)(F)C4)cc3F)n2)c(F)c1` [Example 699], in data set [1] (setting [3]), the pEC50 is 7.08. Further, in data set [2], the “Predicted Hepatic Clearance (Pred. Cl.)” value is given as 0.28 L/h/kg.

Take `N#Cc1ccc(COc2cccc(-c3ccc(Cc4nc5c(F)cc(C(=O)O)cc5n4C[C@@H]4CCO4)cc3F)n2)c(F)c1` [Example 492, (S)-2-(4-(6-((4-cyano-2-fluorobenzyl)oxy)pyridin-2-yl)-3-fluorobenzyl)-4-fluoro-1-(oxetan-2-ylmethyl)-1H-benzo[d]imidazole-6-carboxylic acid]: the pEC50 in data set [1] (setting [3]) is 8.29. Also, the “Predicted Hepatic Clearance (Pred. Cl.)” value in data set [2] is listed as less than 0.11 L/h/kg.

For `COCCn1c(Cc2cc(F)c(-c3cccc(OCc4ccc(Cl)cc4F)n3)cc2F)nc2c(F)cc(C(=O)O)cc21` [Example 662], in data set [1] (setting [3]), the pEC50 is 9.41. Moreover, in data set [2], the “Predicted Hepatic Clearance (Pred. Cl.)” value was 0.22 L/h/kg.

Take `N#CCC1(Cn2c(Cc3ccc(-c4cccc(OCc5ccc(C#N)cc5F)n4)c(F)c3)nc3c(F)cc(C(=O)O)cc32)CC1` [Example 287, 2-(4-(6-((4-cyano-2-fluorobenzyl)oxy)pyridin-2-yl)-3-fluorobenzyl)-1-((1-(cyanomethyl)cyclopropyl)methyl)-4-fluoro-1H-benzo[d]imidazole-6-carboxylic acid]: the pEC50 in data set [1] (setting [3]) was 9.85. For the same molecule, in data set [2], the “Predicted Hepatic Clearance (Pred. Cl.)” value is 0.63 L/h/kg.

Turning to `COCCn1c(Cc2cc(F)c(-c3cccc(OCc4cc(F)c(C(F)(F)F)cc4F)n3)cc2F)nc2ccc(C(=O)O)cc21` [Example 867], in data set [1] (setting [3]), the pEC50 is 8.62. In addition, the “Predicted Hepatic Clearance (Pred. Cl.)” value in data set [2] was 0.11 L/h/kg.

As for `CS(=O)(=O)N1CC[C@@H]1Cn1c(Cc2ccc(-c3cccc(OCc4ccc(C#N)cc4F)n3)cc2F)nc2ccc(C(=O)O)cc21` [Example 888, 2-[[4-[6-[(4-cyano-2-fluoro-phenyl)methoxy]-2-pyridyl]-2-fluoro-phenyl]methyl]-3-[[(2R)-1-methylsulfonylazetidin-2-yl]methyl]benzimidazole-5-carboxylic acid], the pEC50 in data set [1] was 8.22. Moreover, the “Predicted Hepatic Clearance (Pred. Cl.)” value in data set [2] was 0.35 L/h/kg.

For `N#Cc1ccc(COc2cccc(-c3ccc(Cc4nc5ccc(C(=O)O)nc5n4CC4(CF)CC4)cc3F)n2)c(F)c1` [Example 277, 2-(4-(6-((4-cyano-2-fluorobenzyl)oxy)pyridin-2-yl)-3-fluorobenzyl)-3-((1-(fluoromethyl)cyclopropyl)methyl)-3H-imidazo[4,5-b]pyridine-5-carboxylic acid], the pEC50 in data set [1] (setting [3]) was 8.80. Besides, in data set [2], the “Predicted Hepatic Clearance (Pred. Cl.)” value is reported as 0.43 L/h/kg.

For the molecule `COC(CNC(C)=O)Cn1c(Cc2ccc(-c3cccc(OCc4ccc(C#N)cc4F)n3)cc2F)nc2ccc(C(=O)O)cc21` (single isomer, unassigned) [Example 342, 1-(3-acetamido-2-methoxypropyl)-2-(4-(6-((4-cyano-2-fluorobenzyl)oxy)pyridin-2-yl)-2-fluorobenzyl)-1H-benzo[d]imidazole-6-carboxylic acid], the pEC50 in data set [1] (setting [3]) is 5.47. For the same molecule, the “Predicted Hepatic Clearance (Pred. Cl.)” value in data set [2] is recorded as 0.24 L/h/kg.

With `CC1(C)CC(Cn2c(Cc3ccc(-c4cccc(OCc5ccc(C#N)cc5F)n4)cc3F)nc3ccc(C(=O)O)cc32)O1` (stereo not shown) [Example 263, 2-(4-(6-((4-cyano-2-fluorobenzyl)oxy)pyridin-2-yl)-2-fluorobenzyl)-1-((4,4-dimethyloxetan-2-yl)methyl)-1H-benzo[d]imidazole-6-carboxylic acid], the pEC50 in data set [1] (setting [3]) was 7.04. Further, in data set [2], the “Predicted Hepatic Clearance (Pred. Cl.)” value is 0.42 L/h/kg.

For the molecule `N#Cc1ccc(COc2nccc(-c3ccc(Cc4nc5c(F)cc(C(=O)O)cc5n4CC45CC(CO4)C5)cc3F)n2)c(F)c1` [Example 650], the pEC50 in data set [1] (setting [3]) was 7.71. Besides, the “Predicted Hepatic Clearance (Pred. Cl.)” value in data set [2] is listed as 0.66 L/h/kg.

On to `CO[C@H]1CCC[C@@H]1n1c(Cc2cc(F)c(-c3cccc(OCc4ccc(C#N)cc4F)n3)cc2F)nc2ccc(C(=O)O)cc21` [Example 709], for which, in data set [1] (setting [3]), the pEC50 was 8.32. The “Predicted Hepatic Clearance (Pred. Cl.)” value in data set [2] is given as 0.53 L/h/kg.

Regarding `O=C(O)c1ccc2nc(Cc3cc(F)c(-c4cccc(OCc5ccc(Cl)cc5)n4)cc3F)n(Cc3ncco3)c2c1` [Example 819], in data set [1] (setting [3]), the pEC50 was 9.07. Also, the “Predicted Hepatic Clearance (Pred. Cl.)” value in data set [2] is recorded as 0.19 L/h/kg.

As for `COCCn1c(Cc2cc(F)c(-c3cccc(OCc4ccc(C5=CCNCC5)cc4F)n3)cc2F)nc2ccc(C(=O)O)cc21` [Example 901, 2-(2,5-difluoro-4-(6-((2-fluoro-4-(1,2,3,6-tetrahydropyridin-4-yl)benzyl)oxy)pyridin-2-yl)benzyl)-1-(2-methoxyethyl)-1H-benzo[d]imidazole-6-carboxylic acid], the pEC50 in data set [1] (setting [3]) is 6.79. The “Predicted Hepatic Clearance (Pred. Cl.)” value in data set [2] was 0.27 L/h/kg.
